In patent US8859615B2, “Compounds, compositions and methods for reducing toxicity and treating or preventing diseases” (priority 2008, dated 2014):
Read-outs that look alike come from different tables or passages of the source.

Tests used:
[1] = system: human neuroblastoma IMR-32 cells; test: 50% toxicity in the IMR-32 induction assay (Table 12); type: cell-based
Protocol: (§1) Compounds were screened for AKR1C enzyme activity as set forth in Halim, M.; Yee, D. J. and Sames, D. J. Am. Chem. Soc. 2008, […], 14123-14128. […] Specifically, coumberone metabolism studies in IMR-32 can be done as follows: Early-passage (<P25) IMR-32 cells were seeded at a density of 4×10^4 cells/well in 96-well dish. They were then treated with the various inducers or DMSO vehicle (0.5% v/v) control. The concentration of each inducer was varied from 50 nM to 60 μM and the cells were incubated with these for either 24 or 48 hours. 72 hours after seeding, the media was removed and 100 μL of experimental media (DMEM without phenol red supplemented with 100 units/ml penicillin, 100 μg/ml streptomycin, 4 mM L-glutamine and 1% charcoal-dextran treated FBS) was added and incubated for 2 hrs. 100 μl more of the experimental media containing Coumberone (final concentration of 5 μM) was then added. The fluorescence of the cell culture medium was recorded on a plate reader MicroMax 384 connected to a Jobin Yvon Fluorolog by detecting fluorescence at 510 nm upon excitation at 385 nm. The reading was taken every 6 hours for 72 hours. Metabolic conversion rate was obtained by measuring the change in fluorescence per hour for the first 36 hours. The relative increase in metabolic rate was calculated by dividing the metabolic conversion rates of cells incubated with the activator compounds with those incubated with DMSO vehicle. […] Fold-induction is the increase metabolic activity of the reporter. […] “None” indicates no observed induction.

[2] = system: AKR1C2 and AKR1C3 in human neuroblastoma IMR-32 cells; test: Induction of AKR1C enzymes, coumberone metabolism (Tables 12, 13); conditions: for Fold induction of AKR1C2 and AKR1C3 in IMR-32 cells (result in words): inducer varied from 50 nM to 60 μM; for EC50: IMR-32, read-out: EC50 of induction of AKR1C2 and AKR1C3 in IMR-32 cells
Protocol: as §1
The IMR-32 induction assay was run as follows. Early-passage (<P25) IMR-32 cells were seeded at a density of 4×10^4 cells/well in 96-well dish. They were then treated with the various inducers or DMSO vehicle (0.5% v/v) control. The concentration of each inducer was varied from 50 nM to 60 μM and the cells were incubated with these for either 24 or 48 hours. 72 hours after seeding, the media was removed and 100 μL of experimental media (DMEM without phenol red supplemented with 100 units/ml penicillin, 100 μg/ml streptomycin, 4 mM L-glutamine and 1% charcoal-dextran treated FBS) was added and incubated for 2 hrs. 100 μl more of the experimental media containing Coumberone (final concentration of 5 μM) was then added. The fluorescence of the cell culture medium was recorded on a plate reader MicroMax 384 connected to a Jobin Yvon Fluorolog by detecting fluorescence at 510 nm upon excitation at 385 nm. The reading was taken every 6 hours for 72 hours. Metabolic conversion rate was obtained by measuring the change in fluorescence per hour for the first 36 hours. The relative increase in metabolic rate was calculated by dividing the metabolic conversion rates of cells incubated with the activator compounds with those incubated with DMSO vehicle. […] J. Am. Chem. Soc. 2008, 130, 14123-[…].

[3] = system: CCRF-CEM human T-cell acute lymphoblastic leukemia cells; test: In vitro cytotoxicity against CCRF-CEM (XTT / CCK-8 tetrazolium assay, 72 hr); conditions: Homo sapiens, CCRF-CEM, read-out: IC50 (μM) CCRF-CEM
Protocol: The cytotoxicity IC50 of each compound was measured with the XTT assay using the 2,3-bis(2-methoxy-4-nitro-5-sulfophenyl)-5-[(phenylamino)carbonyl]-2H-tetrazolium hydroxide (XTT) microculture method as described in Scudiero et al., Cancer Res., 48:4827 (1988), the contents of which are hereby incorporated by reference in their entirety. The CCK-8 assay is a cell counting kit-8 (CCK-8) tetrazolium assay using a 96-well microplate (Dojindo Molecular Technologies, Inc., Rockville, Md.) (M. Ishiyama et al., Biol. Pharm. Bull. 19: 1518, 1996). Absorbance was measured by Powerwave a XS microplate spectrophotometer. This method described is considered a general method in vitro cytotoxicity studies.
The data in Tables 2X, 3A-E, 4, 5, and 6 were obtained using the cell counting kit-8 (CCK-8) tetrazolium assay in a 96-well microplate. Five to seven concentrations of each compound in triplicate were used, and the IC50 values were determined by CompuSyn software automation (Chou T C. and Martin N. ComboSyn, Inc., 2006) based on the median-effect equation and plot (Chou T C. J. Theor. Biol. 59:235-276, 1976; Chou T C. Pharmacol. Rev. 58: 621-681, 2006). […] The r value defines the correlation coefficient of the median-effect plot which signifies the conformity to the mass-action law principle (Chou T C. J. Theor. Biol. 59:235-276, 1976; Chou T C. Pharmacol. Rev. 58:621-681, 2006). These parameters were determined by CompuSyn simulation (available at http://www.combosyn.com).
CCRF-CEM human T-cell acute lymphoblastic leukemia cells and the corresponding vinblastine-resistant cells (CCRF-CEM/VBL100) were cultured at an initial density of 5×10^4 cells per milliliter. The cultured cells were maintained in a 5% CO2-humidified atmosphere at 37° C. in RPMI medium 1640 (GIBCO/BRL) containing penicillin (100 units/mL), streptomycin (100 μg/mL, GIBCO/BRL), and 10% heat-inactivated fetal bovine serum. The cytotoxicity of each Compound of the invention was measured using the 2,3-bis(2-methoxy-4-nitro-5-sulfophenyl)-5-[(phenylamino)carbonyl]-2H-tetrazolium hydroxide (XTT) microculture method as described in Scudiero et al., Cancer Res., 48:4827 (1988), the contents of which are hereby incorporated by reference in their entirety.
Absorbance was measured by Powerwave XS microplate spectrophotometer.

[4] = Homo sapiens, IMR-32; read-out: 50% toxicity in IMR-32 cells
[5] = Homo sapiens, IMR-32, read-out: Fold induction of AKR1C2 and AKR1C3 in IMR-32 cells
[6] = Homo sapiens, IMR-32, read-out: 50% toxicity in IMR-32 cells
[7] = Homo sapiens, IMR-32, sub-head printed inside Table 13 r22; read-out: IC50 (μM) IMR-32

SMILES | IC50 [1, 4] [µM] | Fold induction of AKR1C2 and AKR1C3 in IMR-32 cells (result in words) [2] | further results
CCCCCCC[C@H]1OC(C)(C)O[C@@H]1Cc1ccc(C=O)cc1 [Compound 13] | ~30 | None | –
CCCCCCC[C@@H](O)[C@H](O)CC#CC#C[C@H](O)c1ccccc1 [Example 24, (1R,7R,8R)-1-phenyl-2,4-pentadecadiyne-1,7,8-triol] | – | – | IC50 ([1]; read-out: 50% toxicity in IMR-32 cells): ~8 µM; EC50 ([2]; Homo sapiens): ~3.5 µM; fold induction at 5 µM [2, 5]: 1.5
C=CC(O)c1ccc(C[C@H]2OC(C)(C)O[C@@H]2CCCCCCC)cc1 (stereo partly drawn) [drawing 247] | – | – | IC50 [3]: 5.25 µM
C=C[C@H](C#CC#CC[C@H]1OC(C)(C)O[C@@H]1CCCCCCC)OC [Compound 7] | – | None | –
CCCCCCC[C@H]1OC(C)(C)O[C@@H]1Cc1ccc(C=O)cc1 [drawing 246] | – | – | IC50 [3]: 12.6 µM
CCCCCCC[C@H]1OC(C)(C)O[C@@H]1CC#CC#C/C=C/C(OC)c1ccccc1 (stereo partly drawn) [Example 25] | ~32.5 | None | –
C=C[C@@](C)(O)C#CC#CC[C@H]1OC(C)(C)O[C@@H]1CCCCCCC [analog 8] | – | None | –
CCCCCCC[C@H]1OC(C)(C)O[C@@H]1CC#CC#C[C@H](O)c1ccccc1 [drawing 245] | – | – | IC50 [3]: 2.49 µM
CCCCCCC[C@@H](O)[C@H](O)CC#CC#C[C@H](O)c1ccccc1 | – | None | IC50 ([1]; listed as 19; read-out: 50% toxicity in IMR-32 cells): > 40 µM
C=C1CO[C@H]2[C@@H]3C(=O)C[C@@H](C(C)C)[C@]3(C)C[C@H]3OC(=O)C[C@@]3(C)[C@@]12O [Compound 35] | > 50 | None | –
CCCCCCC[C@H]1OC(C)(C)O[C@@H]1CC#CC#C/C=C/CO [analog 9] | – | None | –
C=C[C@H](C#CC#CC[C@H]1OC(C)(C)O[C@@H]1CCCCCCC)OC(C)=O [Compound 4] | > 40 | – | fold induction at 20 µM [2, 5]: 1.5
CCCCCCC[C@H]1OC(C)(C)O[C@@H]1CC#CC#CC(=O)CC [Compound 5] | – | None | –
C=C[C@H](O)C#CC#CC[C@H](O)[C@@H](O)CCCCCCC [drawing 241] | – | – | IC50 [3]: 2.69 µM
O=C1NC2(CCCCC2)C(=O)N2CCC[C@@H]12 [Compound 26] | – | None | –
C=CC(=O)C#CC#CC[C@H]1OC(C)(C)O[C@@H]1CCCCCCC [Compound 6] | – | None | –
C=C[C@H](O)C#CC#CC[C@@H]1OC(C)(C)O[C@H]1CCCCCCC [Compound 17] | ~5 | – | –
C=C[C@@H](O)C#CC#CC[C@@H](O)[C@H](O)CCCCCCC [Compound 1] | – | – | IC50 [1, 6]: > 40 µM; fold induction at 20 µM [2, 5]: 2
CCCCCCC[C@H]1OC(C)(C)O[C@@H]1Cc1ccc(C(O)CC)cc1 (stereo partly drawn) [drawing 248] | – | – | IC50 [3]: 4.18 µM

SMILES | IC50 [1, 4] [µM] | Fold induction of AKR1C2 and AKR1C3 in IMR-32 cells (result in words) [2] | further results
CCCCCCC[C@H]1OC(C)(C)O[C@@H]1CC#CC#C[C@H](O)c1ccccc1 [Example 20] | ~10 | None | –
CC1=C[C@@H]2OC[C@@H]3C[C@@]4(O)C[C@]3(C)[C@]2(CC1)CO4 [Compound 34] | – | None | IC50 [1, 6]: > 40 µM
CCCCCCC[C@@H](O)[C@H](O)CC#CC#C[C@H](O)c1ccccc1 [drawing 244] | – | – | IC50 [3]: 5.96 µM
CCCCCCC[C@H]1OC(C)(C)O[C@@H]1Cc1nnn(Cc2ccccc2)c1C(O)CC (stereo partly drawn) [drawing 249] | – | – | IC50 [1, 7]: 35 µM
CCCCCCC[C@H]1OC(C)(C)O[C@@H]1Cc1ccc(C(O)CC)cc1 (stereo partly drawn) [Compound 14] | ~40 | None | –
CCCCCCC[C@H]1OC(C)(C)O[C@@H]1CC#CC(O)CC (stereo partly drawn) [drawing 251] | – | – | IC50 [1, 7]: 25 µM
CCCCCCC[C@H]1OC(C)(C)O[C@@H]1Cc1c[nH]nn1 [drawing 250] | – | – | IC50 [1, 7]: 35 µM
C=C[C@H](O)C#CC#CC[C@H]1OC(C)(C)O[C@@H]1CCCCCCC [Example 21] | ~4 | – | fold induction at 1 µM [2, 5]: 1.4
CC12COC3(O)C4O[C@H]5CCC1(O)C45CC(O)C32C (mixture of isomers) [Compound 33] | – | None | IC50 [1, 6]: > 40 µM
CCCCCCC[C@@H](O)[C@H](O)CC#CC#CC[C@H](O)[C@@H](O)CCCCCCC [analog 2] | – | None | IC50 [1, 6]: ~25 µM
C[C@]12COC(=O)[C@@]1(C)[C@H]1O[C@@]3(C)[C@H](O)C[C@@]24OC(=O)CC134 (stereo partly drawn) [Compound 32] | – | None | IC50 [1, 6]: > 40 µM
CCCCCCC[C@H]1OC(C)(C)O[C@@H]1Cc1c[nH]nn1 [Compound 12] | ~35 | None | –
CCCCCCC[C@@H](O)[C@H](O)CC#CC#CC(O)/C=C/c1ccccc1 (stereo partly drawn) [drawing 243] | – | – | IC50 [3]: 9.46 µM
CCCCCCC[C@H]1OC(C)(C)O[C@@H]1Cc1nnn(Cc2ccccc2)c1C(O)CC (stereo partly drawn) [Compound 11] | ~35 | None | –
C=CC(O)c1ccc(C[C@H]2OC(C)(C)O[C@@H]2CCCCCCC)cc1 (stereo partly drawn) [Compound 15] | ~40 | None | –
CCCCCCC[C@@H](O)[C@H](O)CC#CC#CCO | – | – | IC50 [3]: 5.57 µM
C=C[C@H](O)C#CC#CC[C@H](O)[C@@H](O)CCCCCCC [Compound 16] | – | – | IC50 [1, 6]: ~12 µM; EC50 ([2]; Homo sapiens): ~3.5 µM; fold induction at 5 µM [2, 5]: 2.3
C[C@@]12COC(=O)[C@]1(C)[C@@H]1O[C@]3(C)[C@@H](O)C[C@]24OC(=O)CC134 (stereo partly drawn) [Compound 31] | – | None | IC50 [1, 6]: > 40 µM
CCCCCCC[C@H]1OC(C)(C)O[C@@H]1CC#CC(O)CC (stereo partly drawn) [Compound 10] | ~25 | None | –
